Reference: paper PMC8854749, “Celastrol Inhibits Canine Mammary Tumor Cells by Inducing Apoptosis via the Caspase Pathway” (Frontiers in Veterinary Science, 2022)

Assays:
Assay type in all cases: cell-based, canine
[1] = test system: CIPp cells; assay: Cell Counting Kit-8 (CCK-8) cell viability; settings: for IC50: Canis lupus familiaris, CCK-8
Method: (§1) CMT-7364, CIPp, and MDCK cells were plated in a 96-well plate with 2,000 cells per well and maintained in 5% CO2 at 37°C for 24 h until the cells adhered to the bottom. Then the medium was removed, the new media containing different concentrations (0, 0.1, 0.4, 0.6, 0.8, 1.2, and 1.6 μM) of celastrol were added, and incubated for 12, 24, 36, and 48 h. Ten microliters of the cell counting kit-8 (CCK-8) were added to each well for 1 h incubation. At each time point, the OD value was read by a microplate reader at 450 nm wavelength, and the cell viability with each drug concentration at different time points was calculated: cell relative viability=[(OD 450celastrol-OD 450blank) / (OD 450control-OD 450blank)] × 100%.

[2] = test system: CMT-7364 cells; assay: Cell Counting Kit-8 (CCK-8) cell viability; settings: for IC50: Canis lupus familiaris, CCK-8
Method: as §1

[3] = test system: CIPp cells; assay: Colony formation assay; settings: 0.3 μM or 0.9 μM for 24 h, then 10 days, vs control group
Method: (§2) CMT-7364 and CIPp cells were seeded in a 6-well cell culture plate at a concentration of 1 × 10^4 cells/well until they became adherent, cultured for another 24 h with serum-containing medium with 0 μM celastrol (control group), 0.3 μM celastrol, and 0.9 μM celastrol, respectively. Cells were treated with 0.25% trypsin (Gibco, NY, United States) and resuspended into single cells, each group of cells was seeded in a 6-well cell culture plate at 400 cells/well concentration, and cultured for 10 consecutive days. […] The cells were stained with 0.1% crystal violet, and photographed with a digital camera, followed by calculating the number of colonies.

[4] = test system: CMT-7364 cells; assay: Colony formation assay; settings: 0.3 μM or 0.9 μM for 24 h, then 10 days, vs control group
Method: as §2

[5] = test system: CIPp cells; assay: Cell migration (wound healing) assay; settings: 0.9 μM, 24 h, relative to cells without celastrol
Method: (§3) CMT-7364 and CIPp cell suspensions were uniformly seeded in a 6-well cell culture plate at a concentration of 1 × 10^5 cells/well. After the cells were fully confluent (more than 90 % of confluence), a 200-μl sterile pipette tip was used to scratch a straight line in the cells of each well. PBS was used to wash away the cell debris and floated cells, and 10% serum-containing medium (control group) and 10% serum-containing medium with celastrol (0.3 μM or 0.9 μM) (test group) were added, respectively, then cells were incubated for 24 h in an incubator. Mitomycin C (1 μM) was used to inhibit cell proliferation. Images of cell migration (wound healing) of the same field were taken with an inverted microscope at 0 and 24 h time points, respectively, followed by analyzing the cell migration rate with ImageJ software (version 1.8.0, United States). In brief, 6–8 horizontal lines were randomly drawn in the wound area to calculate the average value of the distance between cells. The migration rate = [(Distance celastrol0h-Distance celastrol24h) / (Distance control0h-Distance control24h)] × 100%.

[6] = test system: CMT-7364 cells; assay: Cell migration (wound healing) assay; settings: 0.9 μM, 24 h, relative to cells without celastrol
Method: as §3

[7] = test system: CIPp cells; assay: Cell cycle distribution, PI staining, flow cytometry; settings: 24 h (0 μM: 12.0%)
Method: (§4) To investigate whether celastrol inhibits the proliferation of canine mammary tumor cells by regulating the cell cycle, we treated canine mammary tumor cells with celastrol for 24 h, then stained cells with PI followed by flow cytometry to detect the percentage of different cell cycle phases. […] Furthermore, we detected the expression of mRNA and protein of cell cycle–related factors by qPCR and Western blotting.

[8] = test system: CMT-7364 cells; assay: as above; settings: 24 h (0 μM: 5.6%)
Method: as §4

[9] = test system: CIPp cells; assay: qPCR of Caspase-3, Caspase-9, p21, p27 mRNA (2^-ΔΔCt, β-actin reference)
Method: (§5) After CMT-7364 and CIPp cells were treated with or without 0.9 μM celastrol for 24 h, TRIzol was used to isolate the total RNA of the cells. The RNA was then reverse transcribed into cDNA using a reverse transcriptase kit. A 20 μl reaction system was prepared according to the manufacturer's instructions and tested in the Real-Time PCR System (Long Gene Q1000, China). The results were analyzed by the 2^−ΔΔCt method: ΔΔCt = (target gene Ct of the experimental group-internal reference gene Ct of the experimental group)-(target gene Ct of the control group-internal reference gene Ct of the control group), β-actin was the internal reference gene.

[10] = test system: CMT-7364 cells; assay: as above
Method: as §5

[11] = CIPp cells, 0.9 μM, 24 h, qPCR, vs control
[12] = CMT-7364, 0.9 μM celastrol, SYBR
[13] = CMT-7364 cells, 0.9 μM, 24 h, qPCR, vs control
[14] = test 1, CMT-7364 cells, 0.9 μM, instrument sheet, CMT-7364 control RQ 1

CC1=C(O)C(=O)C=C2C1=CC=C1[C@@]2(C)CC[C@@]2(C)[C@@H]3C[C@](C)(C(=O)O)CC[C@]3(C)CC[C@]12C [celastrol, Celastrol]
cell viability ([1]; 0.1-1.6 μM, 12-48 h): decreased the viability of the cells in a dose- and time-dependent manner | IC50 ([1]; 24 h): 1160 nM | IC50 ([1]; 48 h): 968 nM | proliferation ([1]; concentration <1.2 μM): significantly inhibited | cell viability ([2]; 0.1-1.6 μM, 12-48 h): decreased the viability of the cells in a dose- and time-dependent manner | IC50 ([2]; 24 h): 1240 nM | IC50 ([2]; 48 h): 1010 nM | proliferation ([2]; concentration <1.2 μM): significantly inhibited | formation of colonies [3]: significantly inhibited the formation of colonies | formation of colonies [4]: significantly inhibited the formation of colonies | migration rate [5]: 52.00 ± 1.73% | migration rate [6]: 55.33 ± 4.91% | percentage of cell cycle G2/M phase ([7]; 0.3 μM): 21.9% | percentage of cell cycle G2/M phase ([7]; 0.9 μM): 34.4% | percentage of cell cycle G2/M phase ([8]; 0.3 μM): 20.3% | percentage of cell cycle G2/M phase ([8]; 0.9 μM): 32.7% | mRNA expression level of Caspase-3 [9, 11]: significantly up-regulated | mRNA expression level of Caspase-9 [9, 11]: significantly up-regulated | mRNA expression level of p21 [9, 11]: up-regulated | mRNA expression level of p27 [9, 11]: up-regulated | RQ Max, caspase-9 ([9]; CIPp, 0.9 μM celastrol, SYBR): 2.2 | RQ Max, p-21 ([9]; CIPp, 0.9 μM celastrol, SYBR): 155.13 | RQ Max, p-27 ([9]; CIPp, 0.9 μM celastrol, SYBR): 4.26 | RQ Max, β-actin ([9]; CIPp, 0.9 μM celastrol, SYBR): 0.51 | RQ Min, caspase-9 ([9]; CIPp, 0.9 μM celastrol, SYBR): 0.78 | RQ Min, p-21 ([9]; CIPp, 0.9 μM celastrol, SYBR): 3.13 | RQ Min, p-27 ([9]; CIPp, 0.9 μM celastrol, SYBR): 1.54 | RQ Min, β-actin ([9]; CIPp, 0.9 μM celastrol, SYBR): 0.16 | RQ, caspase-9 ([9]; CIPp, 0.9 μM celastrol, SYBR): 1.31 | RQ, p-21 ([9]; CIPp, 0.9 μM celastrol, SYBR): 22.02 | RQ, p-27 ([9]; CIPp, 0.9 μM celastrol, SYBR): 2.56 | RQ, β-actin ([9]; CIPp, 0.9 μM celastrol, SYBR): 0.29 | RQ, caspase-9 ([9]; test 1, CIPp cells, 0.9 μM, instrument sheet, calibrator CMT-7364 control RQ 1, CIPp control RQ 0.41): 0.44 | RQ, caspase-3 ([9]; test 1, CIPp cells, 0.9 μM, instrument sheet, calibrator CMT-7364 control RQ 1, CIPp control RQ 0.46): 0.42 | RQ, p-21 ([9]; test 1, CIPp cells, 0.9 μM, instrument sheet, calibrator CMT-7364 control RQ 1, CIPp control RQ 0.49): 0.27 | RQ, p-27 ([9]; test 1, CIPp cells, 0.9 μM, instrument sheet, calibrator CMT-7364 control RQ 1, CIPp control RQ 0.59): 0.17 | RQ, caspase-9 ([9]; test 2, CIPp cells, 0.9 μM, instrument sheet, calibrator CMT-7364 0.9 μM celastrol RQ 1, CIPp control RQ 156.08): 8.49 | RQ, p-21 ([9]; test 2, CIPp cells, 0.9 μM, instrument sheet, calibrator CMT-7364 0.9 μM celastrol RQ 1, CIPp control RQ 156.97): 12.17 | RQ, p-27 ([9]; test 2, CIPp cells, 0.9 μM, instrument sheet, calibrator CMT-7364 0.9 μM celastrol RQ 1, CIPp control RQ 162.87): 12.46 | RQ Max, caspase-9 [10, 12]: 2.21 | RQ Max, p-27 [10, 12]: 1.96 | RQ Max, β-actin [10, 12]: 1.84 | RQ Min, caspase-9 [10, 12]: 0.45 | RQ Min, p-21 [10, 12]: 0 | RQ Min, p-27 [10, 12]: 0.51 | RQ Min, β-actin [10, 12]: 0.54 | RQ, caspase-9 [10, 12]: 1 | RQ, p-21 [10, 12]: 1 | RQ, p-27 [10, 12]: 1 | RQ, β-actin [10, 12]: 1 | mRNA expression level of Caspase-3 [10, 13]: significantly up-regulated | mRNA expression level of Caspase-9 [10, 13]: significantly up-regulated | mRNA expression level of p21 [10, 13]: up-regulated | mRNA expression level of p27 [10, 13]: up-regulated | RQ, caspase-3 [10, 14]: 0.26 | RQ, caspase-9 [10, 14]: 0.29 | RQ, p-21 [10, 14]: 0.53 | RQ, p-27 [10, 14]: 0.19 | RQ, p-27 ([10]; test 2, CMT-7364 cells, 0.9 μM, instrument sheet, this sample is the calibrator (ΔΔCt 0.00), CMT-7364 control RQ 1.47): 1 | RQ, caspase-9 ([10]; test 2, CMT-7364 cells, 0.9 μM, instrument sheet, this sample is the calibrator (ΔΔCt 0.00), CMT-7364 control RQ 25.61): 1 | RQ, p-21 ([10]; test 2, CMT-7364 cells, 0.9 μM, instrument sheet, this sample is the calibrator (ΔΔCt 0.00), CMT-7364 control RQ 51.05): 1
